# Assays:
# LRRK2 = LRRK2 levels in mouse striatal tissue after intracranial AICAr via osmotic pumps, Western blot; format: in vivo
# Method: Saline injections were performed as controls.
# Stereotaxic intracranial injection. Three days before survival surgery, osmotic pumps (ALZET, 1004) were filled with saline, 1 mg/ml or 30 mg/ml AICAr in saline, assembled with brain infusion kits (ALZET, Brain Infusion Kit 2), and incubated in saline at 37° C. 3-month-old mice were anesthetized by isoflurane gas supplemented with 0.5 L/min oxygen. A ˜1.5 cm incision was made midline on the scalp. For mouse striatum injection, one hole was drilled at the following coordinates: anterioposterior=+0.5 mm from bregma; lateral=−2.0 mm from bregma; dorsoventral=−3.5 mm. For mouse substantia nigra pars compacta (SNpc) injection, one hole was drilled at the following coordinates: anterioposterior=−3.2 mm from bregma; lateral=−1.2 mm from bregma; dorsoventral=−4.2 mm. 1 ul LPS (5 ug) or PBS was injected at a rate of 0.2 ul/min using a Hamilton syringe with a 26-gauge blunt needle. After injection, the needle was in place for 5 minutes to minimize backflow. A subcutaneous pocket was made on the animal's back to hold the osmotic pump. The 28-gauge needle from infusion cannulae connected to the osmotic pump with a vinyl catheter tube was inserted into the same hole and then the cannulae was secured to the skull with Loctite 454 (ALZET). The wound was closed with monofilament suture. […]
# GBA mRNA = GBA mRNA levels by real-time PCR in SH-SY5Y cells; format: cell-based, human; details: 2 mM, 24 hours
# Method: Real-Time PCR (qPCR). SH-SY5Y WT or AUF1-KO cells were treated with or without 2 mM AICAr for 24 hours, and total RNA was extracted from 3×10^5 cells of each treatment using TRIzol™ Reagent (Invitrogen) as per the manufacturer's introductions. Real-Time PCR (qPCR) assay was performed using GoTaq® 2-Step RT-PCR System (Promega) as per the manufacturer's introductions. Briefly, total cDNA was reversely transcribed from RNA pools (1.5 μg RNA in a 10 μl reaction mixture) using random primers. The qPCR reaction was run in CFX96 qPCR detection system (Bio-Rad) with 3 μl cDNA (1:20 dilution) in a 10 μl reaction mixture (Table 3), and set at 95° C. for 2 minutes followed by 40 amplification cycles of 95° C. for 15 seconds, 60° C. for 1 min with a melting curve, 95° C. for 15 seconds, 60° C. for 1 min, a ramp from 60° C. to 95° C. at an 1% rate, and 95° C. for 15 seconds. Melt curves were monitored to assess qPCR amplicons, and critical threshold (Ct) values were collected with an enclosed software. Relative gene expression was analyzed by normalization against Ct values of f-ACTIN (housekeeping gene) and then determined by comparison with expression levels of control sample using the relative expression index (2-ΔΔCt) method.
# LRRK2 mRNA = LRRK2 mRNA stability assay in the presence of actinomycin D; format: cell-based, human; details: SH-SY5Y, 2 mM AICAr, 24-h period, 10 μg/ml actinomycin D
# Method: FIGS. 3A-3J depict that AICAr regulates LRRK2 at mRNA level and through a specific region. FIGS. 3A and 3B depict the LRRK2 protein levels upon treatment of AICAr together with a proteasome inhibitor MG132 or an autophagy inhibitor chloroquine (CQ). […] LRRK2 expression levels were analyzed by Western blot. Images were quantified by ImageJ software. Data are mean±SEM, n=3 independent experiments. ***p<0.001, ****p<0.0001 by one-way ANOVA followed by a Tukey's post hoc test. FIG. 3C depicts the LRRK2 and GBA mRNA levels upon AICAr treatment. SH-SY5Y cells were treated with or without 2 mM AICAr for 24 hours. Total RNA was extracted. LRRK2 and GBA mRNA levels were analyzed by real-time PCR. Data are mean±SEM, n=4 independent experiments. **p<0.01 by Student's t tests. ns: not statistically significant. […] LRRK2 mRNA levels were analyzed by real-time PCR. […] LRRK2 expression levels were analyzed by Western blot. Images were quantified by ImageJ software. […] LRRK2 deletion mutant expression levels were analyzed by Western blot. FIGS. 3I and 3J depict that the specific region (2221-3927 bp) of the synthesized Flag-LRRK2 cDNA was replaced with the native sequence and the response of this chimeric LRRK2 cDNA expression to AICAr treatment was analyzed by Western blot. Images were quantified by ImageJ software. […]
smiles,measurement,setting,value
"NC(=O)c1ncn([C@@H]2O[C@H](CO)[C@@H](O)[C@H]2O)c1N [AICAr, 5-aminoimidazole-4-carboxamide riboside]",LRRK2 levels in striatal tissues,"LRRK2; WT mice, LPS model, AICAr 2.4 μg/day/animal into striatum, 21 days, Western blot",significant decrease
same,LRRK2 levels in striatal tissue near the injection sites,"LRRK2; male and female mice, striatum, osmotic minipumps, 72 ug/animal/day, 1 day after injection",dramatically decreased
same,GBA mRNA levels,GBA mRNA,no changes
same,acceleration of LRRK2 mRNA decay,LRRK2 mRNA,about twofold

# — US20240075050A1, “Methods and Compositions for Treating Leucine Rich Repeat Kinase 2 (LRRK2)-Associated Disorder or Condition” (University of Connecticut, priority 2022, published 2024)
